pIC50, pKi: −log10 of the molar value.

The target in the first experiment is T1, H1 (Cavia porcellus, UniProt P31389).
T1 construct: Ileal segments were removed from male Hartley guinea pigs; from tissue; host or cells: isolated ileal segments of male Hartley guinea pigs
T1 sequence (P31389 whole entry): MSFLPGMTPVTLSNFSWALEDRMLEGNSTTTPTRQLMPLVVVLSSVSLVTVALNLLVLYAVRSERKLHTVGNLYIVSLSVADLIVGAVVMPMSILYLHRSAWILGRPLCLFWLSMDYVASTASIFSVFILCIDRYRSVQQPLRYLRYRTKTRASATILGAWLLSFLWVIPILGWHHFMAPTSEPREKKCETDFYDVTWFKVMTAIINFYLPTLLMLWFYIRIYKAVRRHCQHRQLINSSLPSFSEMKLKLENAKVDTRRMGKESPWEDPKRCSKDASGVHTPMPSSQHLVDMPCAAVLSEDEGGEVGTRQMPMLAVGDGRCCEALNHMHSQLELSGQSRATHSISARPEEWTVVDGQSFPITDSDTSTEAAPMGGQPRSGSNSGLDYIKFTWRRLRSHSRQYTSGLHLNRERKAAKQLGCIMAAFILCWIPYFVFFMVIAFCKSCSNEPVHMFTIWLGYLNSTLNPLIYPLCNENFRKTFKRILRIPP
The experiment can be described thus: In vitro H1 antihistamine activity assay (inhibition of histamine spasmogenic activity in isolated ileal segments). On the set-up: species or system male Hartley guinea pigs. The following applies: guinea pig ileum, antagonist 5 min before histamine curve; read-out: dissociation constant (Ki). Here is the method: In vitro assay: Ileal segments were removed from male Hartley guinea pigs (250-350 g) and suspended in 10 ml perfusion baths containing Tyrode's solution. The buffer was equilibrated with 95% O2 and 5% CO2 and maintained at a temperature of 37° C. The tissues were adjusted to 0.5-1 g tension and allowed to equilibrate for 30 min. All responses were recorded isometrically by means of a Grasse smooth muscle transducer and electronic recorder. Drugs were tested for their ability to inhibit the spasmogenic activity of histamine dihydrochloride. Two cumulative control log concentration-response curves for histamine (10^-7 -10^-5 M) were generated for each tissue. Antagonists were added to the bath and allowed to act for 5 min. before another histamine curve was generated.
Drugs were evaluated for their ability to inhibit histamine and thereby shift the response curve to the right. […] These values were used to determine relative potency.
As for `CN1CC[C@H]2[C@@H](Cc3cc(Cl)cc4c3[C@@H]2c2ncccc2CC4)C1` (relative stereo) [Compound 17, 7-chloro-2,3,4,4a,5,9,10,14b,14c-decahydro-3-methylpyrido[2",3":7',6']-cyclohepta[1',2',3',:4,5]naphtho[2,3-c]pyridine], the pKi is 9.00.

The experiment is the same for the next values; noted with them: guinea pig ileum, antagonist 5 min before histamine curve; read-out: pA2 (converted).
Turning to `CN1CC[C@H]2[C@@H](Cc3cc(Cl)cc4c3[C@@H]2c2ncccc2CC4)C1` (relative stereo) [Compound 17, 7-chloro-2,3,4,4a,5,9,10,14b,14c-decahydro-3-methylpyrido[2",3":7',6']-cyclohepta[1',2',3',:4,5]naphtho[2,3-c]pyridine], the Kb was 0.00141 µM.

For another experiment, the system named is PAF-induced platelet aggregation. The experiment can be described thus: In vitro PAF antagonism assay (inhibition of PAF-induced platelet aggregation in platelet-rich plasma). In kind it is cell-based. The following applies: at 50 μM, human PRP, PAF 1-5×10^-8 M. Here is the method: In vitro Assay: Preparation of platelet-rich plasma (PRP): Human blood (50 ml) is collected from healthy male donors in an anticoagulant solution (5 ml) containing sodium citrate (3.8%) and dextrose (2%). Blood is centrifuged at 110 x g for 15 min. and the supematant (PRP) carefully transferred into a polypropylene tube. Platelet-poor-plasma (PPP) is prepared by centrifuging PRP at 12,000 x g for 2 min. (Beckman Microfuge B). PRP is used within 3 hours of drawing the blood.
Platelet Aggregation Assay: When an aggregating agent such as PAF is added to PRP, platelets aggregate. The aggregation assays are performed using a dual-channel aggregometer (Model 440, Chrono-Log Corp., Havertown, Pa.). PRP (0.45 ml) in aggregometer cuvettes is continually stirred (37° C.). Solutions of test compounds or vehicle are added to the PRP, and after incubation for 2 min., 10-15 μl aliquots of PAF solution are added so as to achieve a final concentration of 1-5×10^-8 M. Incubations are continued until the increase in light transmission reaches a maximum (usually 2 min). Values for inhibition are calculated by comparing maximal aggregation obtained in the absence and the presence of the compound. For each experiment, a standard PAF antagonist such as alprazolam is used as a positive internal control. The inhibitory concentration (IC50) is the concentration of compound in micromoles at which 50% of the aggregation is inhibited, as measured by the light transmission through each sample of PRP as compared to PPP.
As for `CC(=O)N1CC[C@H]2C(=O)c3cc(Cl)cc4c3[C@H](c3ncccc3CC4)[C@H]2C1` (relative stereo) [Compound 6A], the inhibition at 50 µM was found to be 33%.
`CC(=O)N1CC[C@@H]2C(=O)c3cc(Cl)cc4c3[C@H](c3ncccc3CC4)[C@H]2C1` (relative stereo) [Compound 6B] yielded an inhibition at 50 µM of 49%.
Same read-out and setting: under `CC(=O)N1CC[C@@H]2[C@H]3c4ncccc4CCc4cc(Cl)cc(c43)C(=O)[C@@H]2C1` (relative stereo) [Compound 10A] stands 15%; under `CN1CC[C@@H]2[C@H]3c4ncccc4CCc4cc(Cl)cc(c43)C(=O)[C@@H]2C1` (relative stereo) [Compound 11A], 47%.
`CN1CC[C@@H]2[C@H]3c4ncccc4CCc4cc(Cl)cc(c43)C(=O)[C@H]2C1` (relative stereo) [Compound 11B] had an inhibition at 50 µM of 4%.
Same read-out and setting: under `CC(=O)N1CC[C@H]2C(=Cc3cc(Cl)cc4c3[C@@H]2c2ncccc2CC4)C1` (relative stereo) [Compound 13] stands 23%.

Still in this experiment, the particulars now being: human PRP, PAF 1-5×10^-8 M.
Turning to `CC(=O)N1CC[C@H]2[C@H](Cc3cc(Cl)cc4c3[C@@H]2c2ncccc2CC4)C1` (relative stereo) [Compound 14A], the pIC50 was about 2.52.
`CC(=O)N1CC[C@H]2[C@@H](Cc3cc(Cl)cc4c3[C@@H]2c2ncccc2CC4)C1` (relative stereo) [Compound 14B] gave a pIC50 of about 3.52.
`CN1CC[C@H]2C(=Cc3cc(Cl)cc4c3[C@@H]2c2ncccc2CC4)C1` (relative stereo) [Compound 16] showed a negative-log IC50 (pIC50) of about 5.26.
The same measure, in the same setting: under `CN1CC[C@H]2[C@@H](Cc3cc(Cl)cc4c3[C@@H]2c2ncccc2CC4)C1` (relative stereo) [Compound 17, 7-chloro-2,3,4,4a,5,9,10,14b,14c-decahydro-3-methylpyrido[2",3":7',6']-cyclohepta[1',2',3',:4,5]naphtho[2,3-c]pyridine] stands about 4.42.
Same read-out and setting: under `O=C(c1cc[n+]([O-])cc1)N1CC[C@H]2[C@@H](Cc3cc(Cl)cc4c3[C@@H]2c2ncccc2CC4)C1` (relative stereo) [Compound 20] stands about 5.55.

Broadly, the pKi is the negative decadic logarithm of the Ki, by convention in mol/L. One may read the inhibition as the relative decrease from the control value, in per cent. What is called pIC50 is the negative decadic logarithm of the IC50, by convention in mol/L. Read a low pIC50 as a high IC50.
